Legend:
Assay in all cases: Inhibition zone test of compositions on Mueller Hinton lawn
Assay type in all cases: cell-based
B. cereus = conditions: MPK2 200 AU/mL, 24 hours
Protocol: (§1) Different compositions comprising the MicroPacin K2 polypeptide were prepared in different vehicles: 10% w/v methanol, 10% w/v glycerol, 0.5% w/v polyethylene glycol, and water. In the case of the MicroPacin K2 polypeptide, it was used at a concentration of 200 AU/mL in each composition.
(§2) A 5 μL aliquot of each of the prepared compositions was taken and added to a plate with Mueller Hinton medium containing the sensitivity indicator bacteria, previously seeded in the form of a lawn. The plates were then incubated for 24 hours, and the antibacterial activity of the compositions was observed according to the appearance and size of the inhibition zone. This test, in turn, was performed under the same conditions with the commercial bacteriocin Nisin as a comparator agent, which is considered a gold standard bacteriocin, for being approved by the FDA (Food and Drug Administration).
(§3) In this example, the antibacterial effect of compositions comprising the polypeptide MicroPacin K2 and an additional antibacterial agent, including nisin (5,000 AU/mL), ampicillin (0.01 μg/mL), and tetracycline (0.05 μg/mL), is evaluated. The assay was performed using distilled water as the vehicle for the composition. The final concentration of MicroPacin K2 in the compositions evaluated was 200 AU/mL.

C. freundii = conditions: MPK2 200 AU/mL, 24 hours
Protocol: as §1, §2, §3

E. coli DH5α = conditions: MPK2 200 AU/mL, 24 hours
Protocol: as §1, §2, §3

E. coli O157:H7 = conditions: for Zone of growth inhibition: MPK2 200 AU/mL, 24 hours
Protocol: as §1, §2, §3

L. monocytogenes = conditions: MPK2 200 AU/mL, 24 hours
Protocol: as §1, §2, §3

S. aureus = conditions: MPK2 200 AU/mL, 24 hours
Protocol: as §1, §2, §3

S. saprophyticus = conditions: MPK2 200 AU/mL, 24 hours
Protocol: as §1, §2, §3

S. sonnei = conditions: for Zone of growth inhibition: S. sonnei, MPK2 200 AU/mL, 24 hours
Protocol: as §1, §2, §3

Nisin [reference compound]
Zone of growth inhibition (B. cereus; vehicle Glycerol 10%): 9.0 mm | Zone of growth inhibition (B. cereus; vehicle H2O): 8.0 mm | Zone of growth inhibition (B. cereus; vehicle Methanol 10%): 8.0 mm | Zone of growth inhibition (B. cereus; vehicle PEG 0.5%): 9.0 mm | Zone of growth inhibition (C. freundii; vehicle Glycerol 10%): 8.0 mm | Zone of growth inhibition (C. freundii; vehicle H2O): 8.0 mm | Zone of growth inhibition (C. freundii; vehicle Methanol 10%): 8.0 mm | Zone of growth inhibition (C. freundii; vehicle PEG 0.5%): 7.0 mm | Zone of growth inhibition (E. coli DH5α; vehicle Glycerol 10%): 8.0 mm | Zone of growth inhibition (E. coli DH5α; vehicle H2O): 8.0 mm | Zone of growth inhibition (E. coli DH5α; vehicle Methanol 10%): 8.0 mm | Zone of growth inhibition (E. coli DH5α; vehicle PEG 0.5%): 8.0 mm | Inhibition of growth (inhibition halo) (E. coli O157:H7; compositions): not able to inhibit their growth | Zone of growth inhibition (E. coli O157:H7; vehicle Glycerol 10%): 0 mm | Zone of growth inhibition (E. coli O157:H7; vehicle H2O): 0 mm | Zone of growth inhibition (E. coli O157:H7; vehicle Methanol 10%): 0 mm | Zone of growth inhibition (E. coli O157:H7; vehicle PEG 0.5%): 0 mm | Zone of growth inhibition (L. monocytogenes; vehicle Glycerol 10%): 9.0 mm | Zone of growth inhibition (L. monocytogenes; vehicle H2O): 9.0 mm | Zone of growth inhibition (L. monocytogenes; vehicle Methanol 10%): 9.0 mm | Zone of growth inhibition (L. monocytogenes; vehicle PEG 0.5%): 9.0 mm | Zone of growth inhibition (S. aureus; vehicle Glycerol 10%): 9.0 mm | Zone of growth inhibition (S. aureus; vehicle H2O): 9.0 mm | Zone of growth inhibition (S. aureus; vehicle Methanol 10%): 8.0 mm | Zone of growth inhibition (S. aureus; vehicle PEG 0.5%): 8.0 mm | Zone of growth inhibition (S. saprophyticus; vehicle Glycerol 10%): 10.0 mm | Zone of growth inhibition (S. saprophyticus; vehicle H2O): 10.0 mm | Zone of growth inhibition (S. saprophyticus; vehicle Methanol 10%): 10.0 mm | Zone of growth inhibition (S. saprophyticus; vehicle PEG 0.5%): 9.0 mm | Zone of growth inhibition (S. sonnei; vehicle Glycerol 10%): 0 mm | Zone of growth inhibition (S. sonnei; vehicle H2O): 0 mm | Zone of growth inhibition (S. sonnei; vehicle Methanol 10%): 0 mm | Zone of growth inhibition (S. sonnei; vehicle PEG 0.5%): 0 mm | Inhibition of growth (inhibition halo) (S. sonnei; Shigella sonnei, compositions): not able to inhibit their growth

— US20260070951A1, “MICROPAKINE K2 ANTIMICROBIAL POLYPEPTIDE, COMPOSITION COMPRISING IT AND USE FOR TREATING BACTERIAL INFECTIONS” (priority 2022, published 2026)
